Experimental data taken from US20260092179A1, “GENETICALLY MODIFIED HOST CELLS PRODUCING VIOLACEIN, ANALOGUES, AND DERIVATIVES THEREOF” (OCTARINE BIO APS, priority 2022, published 2026).

What was measured:
[1] = Alkaline pH stability of dyed fabrics (colour fastness, ΔE); format: physicochemical; details: pH 8 with NaOH
Method: (§1) In order to assess the stability and colour fastness of violacein and violacein derivatives dyed onto fabrics, dyed fabrics were subjected to a number of conditions. Fabrics were dyed according to Example 18 and colour coordinates and colour change before and after exposure to a given condition were determined as described in Example 18. To measure temperature stability, fabrics were incubated in an oven set to 80° c. for 4 h. To measure stability under acid and alkaline conditions, fabrics were fully submerged in water solutions set to pH 8 with NaOH and pH 5 with HCl and incubated at room temperature for 30 minutes. Fabrics were then incubated at 37° c. for 4 h. To measure stability during laundering, fabrics were washed at 30° c. under the “mix” setting of a Siemens IQ300 washing machine, then dried in a Siemens IQ300 dryer until dry. To measure artificial light stability, fabrics were placed under an LED lamp at room temperature for 16 h. To measure UV light stability, fabrics were placed under a UV lamp at room temperature for 1 h.

[2] = Acidic pH stability of dyed fabrics (colour fastness, ΔE); format: physicochemical; details: pH 5 with HCl
Method: as §1

[3] = UV stability of dyed fabrics (colour fastness, ΔE); format: physicochemical; details: for ΔE: before vs after UV lamp, room temperature, 1 h
Method: as §1

S. cerevisiae S228c = assay: Antimicrobial activity of dyed Nylon 6,6 fabric: final OD600 and % inhibition; format: cell-based
E. coli DH5a = assay: as above; format: cell-based
[4] = Acrylic, before and after the stability test
[5] = Bleached cotton, before and after the stability test
[6] = Diacetate, before and after the stability test
[7] = Nylon 6,6, before and after the stability test
[8] = Polyester, before and after the stability test
[9] = Wool, before and after the stability test
[10] = Acrylic, after test (UV lamp, room temperature, 1 h)
[11] = Bleached cotton, after test (UV lamp, room temperature, 1 h)
[12] = Diacetate, after test (UV lamp, room temperature, 1 h)
[13] = Nylon 6,6, after test (UV lamp, room temperature, 1 h)
[14] = Polyester, after test (UV lamp, room temperature, 1 h)
[15] = Wool, after test (UV lamp, room temperature, 1 h)

O=C1NC(c2c[nH]c3ccc(O)cc23)=C/C1=C1\C(=O)Nc2ccccc21 [violacein]
L ([1]; Acrylic, After test): 63.85
a ([1]; Acrylic, After test): 2.52
b ([1]; Acrylic, After test): 0.06
L ([1]; Acrylic, Before test): 65.79
a ([1]; Acrylic, Before test): 3.11
b ([1]; Acrylic, Before test): 0.28
ΔE [1, 4]: 2.04
L ([1]; Bleached cotton, After test): 60.76
a ([1]; Bleached cotton, After test): 3.22
b ([1]; Bleached cotton, After test): −7.53
L ([1]; Bleached cotton, Before test): 59.94
a ([1]; Bleached cotton, Before test): 2.69
b ([1]; Bleached cotton, Before test): −8.23
ΔE [1, 5]: 1.20
L ([1]; Diacetate, After test): 44.97
a ([1]; Diacetate, After test): 7.85
b ([1]; Diacetate, After test): −11.19
L ([1]; Diacetate, Before test): 43.93
a ([1]; Diacetate, Before test): 8.84
b ([1]; Diacetate, Before test): −14.67
ΔE [1, 6]: 3.76
L ([1]; Nylon 6,6, After test): 33.91
a ([1]; Nylon 6,6, After test): 5.25
b ([1]; Nylon 6,6, After test): −19.35
L ([1]; Nylon 6,6, Before test): 34.13
a ([1]; Nylon 6,6, Before test): 6.3
b ([1]; Nylon 6,6, Before test): −20.23
ΔE [1, 7]: 1.39
L ([1]; Polyester, After test): 68.28
a ([1]; Polyester, After test): 1.01
b ([1]; Polyester, After test): −0.5
L ([1]; Polyester, Before test): 66.44
a ([1]; Polyester, Before test): 4.15
b ([1]; Polyester, Before test): −2.11
ΔE [1, 8]: 3.98
L ([1]; Wool, After test): 66.99
a ([1]; Wool, After test): −0.18
b ([1]; Wool, After test): 1.19
L ([1]; Wool, Before test): 67.52
a ([1]; Wool, Before test): 0.35
b ([1]; Wool, Before test): 1.01
ΔE [1, 9]: 0.77
L ([2]; Acrylic, After test): 66.03
a ([2]; Acrylic, After test): 2.78
b ([2]; Acrylic, After test): 0.02
L ([2]; Acrylic, Before test): 65.53
a ([2]; Acrylic, Before test): 2.41
b ([2]; Acrylic, Before test): 0.93
ΔE [2, 4]: 1.10
L ([2]; Bleached cotton, After test): 59.6
a ([2]; Bleached cotton, After test): 2.72
b ([2]; Bleached cotton, After test): −7.71
L ([2]; Bleached cotton, Before test): 59.65
a ([2]; Bleached cotton, Before test): 3.71
b ([2]; Bleached cotton, Before test): −6.68
ΔE [2, 5]: 1.43
L ([2]; Diacetate, After test): 45.59
a ([2]; Diacetate, After test): 9.13
b ([2]; Diacetate, After test): −11.74
L ([2]; Diacetate, Before test): 45.97
a ([2]; Diacetate, Before test): 8.41
b ([2]; Diacetate, Before test): −13
ΔE [2, 6]: 1.50
L ([2]; Nylon 6,6, After test): 34.94
a ([2]; Nylon 6,6, After test): 5.43
b ([2]; Nylon 6,6, After test): −20.31
L ([2]; Nylon 6,6, Before test): 34.82
a ([2]; Nylon 6,6, Before test): 5.47
b ([2]; Nylon 6,6, Before test): −20.22
ΔE [2, 7]: 0.16
L ([2]; Polyester, After test): 68.04
a ([2]; Polyester, After test): 1.96
b ([2]; Polyester, After test): −1.34
L ([2]; Polyester, Before test): 66.71
a ([2]; Polyester, Before test): 3.52
b ([2]; Polyester, Before test): −2.04
ΔE [2, 8]: 2.17
L ([2]; Wool, After test): 69.34
a ([2]; Wool, After test): 1.2
b ([2]; Wool, After test): 0.61
L ([2]; Wool, Before test): 69.04
a ([2]; Wool, Before test): 0.77
b ([2]; Wool, Before test): 1.2
ΔE [2, 9]: 0.79
L [3, 10]: 62.36
a [3, 10]: 1.52
b [3, 10]: 0.96
L ([3]; Acrylic, before test): 59.81
a ([3]; Acrylic, before test): 2.39
b ([3]; Acrylic, before test): 0.08
ΔE ([3]; Acrylic): 2.83
L [3, 11]: 58.38
a [3, 11]: 3.17
b [3, 11]: −5.79
L ([3]; Bleached cotton, before test): 58.11
a ([3]; Bleached cotton, before test): 3.63
b ([3]; Bleached cotton, before test): −8.4
ΔE ([3]; Bleached cotton): 2.66
L [3, 12]: 43.08
a [3, 12]: 10.1
b [3, 12]: −9.59
L ([3]; Diacetate, before test): 41.1
a ([3]; Diacetate, before test): 9.04
b ([3]; Diacetate, before test): −13.41
ΔE ([3]; Diacetate): 4.43
L [3, 13]: 35.29
a [3, 13]: 4.36
b [3, 13]: −18.03
L ([3]; Nylon 6,6, before test): 34.58
a ([3]; Nylon 6,6, before test): 4.58
b ([3]; Nylon 6,6, before test): −19.61
ΔE ([3]; Nylon 6,6): 1.75
L [3, 14]: 68.13
a [3, 14]: 1.99
b [3, 14]: −0.71
L ([3]; Polyester, before test): 67.13
a ([3]; Polyester, before test): 1.68
b ([3]; Polyester, before test): −1.12
ΔE ([3]; Polyester): 1.12
L [3, 15]: 68.91
a [3, 15]: 2.13
b [3, 15]: 1.49
L ([3]; Wool, before test): 68.14
a ([3]; Wool, before test): 0.77
b ([3]; Wool, before test): 1.77
ΔE ([3]; Wool): 1.59
Final OD600 (S. cerevisiae S228c; S. cerevisiae cultured overnight at 30° c. with dyed Nylon 6,6 fabric strip, starting OD600 0.1): 4.64
% Inhibition (S. cerevisiae S228c; S. cerevisiae, dyed Nylon 6,6 fabric vs undyed fabric control): 13.43%
Final OD600 (E. coli DH5a; E. coli cultured overnight at 30° c. with dyed Nylon 6,6 fabric strip, starting OD600 0.1): 4.16
% Inhibition (E. coli DH5a; E. coli, dyed Nylon 6,6 fabric vs undyed fabric control): 20.24%
growth inhibition of E. coli (E. coli DH5a; dyed Nylon 6,6 fabric strip in culture, overnight 30° c., OD600 versus undyed fabric): most inhibited
